# Non-standard residues stand in square brackets, D forms with d. Residues, ends and D or L forms follow the SMILES beside them. *: point of attachment. dPhe(4-Cl) = N[C@H](Cc1ccc(Cl)cc1)C(=O)O; NH(2-(2-pyridyl)ethyl) = c1ccc(CCN*)nc1; NH(2-morpholinoethyl) = C(CN1CCOCC1)N*; d2Nal = N[C@H](Cc1ccc2ccccc2c1)C(=O)O; NMeY = CN[C@@H](Cc1ccc(O)cc1)C(=O)O; d3Pal = N[C@H](Cc1cccnc1)C(=O)O; NH(3-picolyl) = c1cncc(CN*)c1; NHPhenethyl = c1ccc(CCN*)cc1; Nicotinoyl = O=C(c1cccnc1)*; NH(CH2)8NH2 = NCCCCCCCCN*; Agmatine = N=C(N)NCCCCN*; NH(CH2)7NH2 = NCCCCCCCN*; X6 = N=C(N)NCCCCCCCCN*; X13 = C(CN*)CN1CCOCC1; X5 = C1CN2CCC1C(N*)C2; NH(CH2)3NH2 = NCCCN*; X11 = CC(C)NCCCCCN*; NHCH2CH2OH = OCCN*; X7 = CN1CCCC1CCN*; NEt2 = CCN(CC)*; X4 = CC(C)NCCN*
# Target: T1, LH release from rat pituitary cells (Rattus norvegicus, UniProt P30969)
# T1 sequence (P30969 1-327): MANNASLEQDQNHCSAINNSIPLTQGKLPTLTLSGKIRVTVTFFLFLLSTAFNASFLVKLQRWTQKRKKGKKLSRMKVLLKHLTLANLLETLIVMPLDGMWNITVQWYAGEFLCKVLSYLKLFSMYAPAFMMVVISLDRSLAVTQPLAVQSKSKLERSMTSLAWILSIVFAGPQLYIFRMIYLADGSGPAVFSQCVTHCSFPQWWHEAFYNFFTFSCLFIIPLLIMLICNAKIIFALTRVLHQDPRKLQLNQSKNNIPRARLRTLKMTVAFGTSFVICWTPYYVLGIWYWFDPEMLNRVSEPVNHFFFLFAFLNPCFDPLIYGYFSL
# Test: in vitro inhibition of LH release from rat pituitary cells (pA2)
# Assay type: cell-based
# Conditions: pA2 = negative logarithm of antagonist concentration required to shift the response curve of the agonist leuprolide to two-fold higher concentration
# Procedure: Representative compounds of the present invention were evaluated in vitro for inhibition of LH release from rat pituitary cells (pA2). Methods for the assay procedures arc described by F. Haviv, et al. J. Med. Chem., 32:2340-2344 (1989). Values of pA2 are the negative logarithms of the concentration of the particular antagonist test compound required to shift the response curve produced by the agonist leuprolide to two-fold higher concentration. Typically values of 7.0 or greater are indicative of good LHRH antagonist potency, with values of 8.0 or greater being preferred. Leuprolide LHRH agonist, disclosed and claimed in U.S. Pat. No. 4,005,063, has the structure 5-oxo-Pro^1 -His^2 -Trp^3 -Ser^4 -Tyr^5 -D-Leu^6 -Leu^7 -Arg^8 -Pro^9 -NHEt.
row,Structure (SMILES),LHRH antagonist potency (pA2)
1,"CC(=O)N[C@H](Cc1ccc2ccccc2c1)C(=O)N[C@H](Cc1ccc(Cl)cc1)C(=O)N[C@H](Cc1cccnc1)C(=O)N[C@@H](CO)C(=O)N(C)[C@@H](Cc1ccc(O)cc1)C(=O)N[C@H](CCCCNC(=O)c1cccnc1)C(=O)N[C@@H](CC(C)C)C(=O)NCCCCCCCCN [Example 18, NAcD2Nal-D4ClPhe-D3Pal-Ser-NMeTyr-DLys(Nic)-Leu-NH--(CH2)8 NH2] (Ac-[d2Nal][dPhe(4-Cl)][d3Pal]S[NMeY][dK](Nicotinoyl)L-{NH(CH2)8NH2})",8.48
2,"CC(=O)N[C@H](Cc1ccc2ccccc2c1)C(=O)N[C@H](Cc1ccc(Cl)cc1)C(=O)N[C@H](Cc1cccnc1)C(=O)N[C@@H](CO)C(=O)N(C)[C@@H](Cc1ccc(O)cc1)C(=O)N[C@H](CCCCNC(=O)c1cccnc1)C(=O)N[C@@H](CC(C)C)C(=O)NCCCN [Example 15, NAcD2Nal-D4ClPhe-D3Pal-Ser-NMeTyr-DLys(Nic)-Leu-NH--(CH2)3 NH2] (Ac-[d2Nal][dPhe(4-Cl)][d3Pal]S[NMeY][dK](Nicotinoyl)L-{NH(CH2)3NH2})",8.70
3,"CC(=O)N[C@H](Cc1ccc2ccccc2c1)C(=O)N[C@H](Cc1ccc(Cl)cc1)C(=O)N[C@H](Cc1cccnc1)C(=O)N[C@@H](CO)C(=O)N(C)[C@@H](Cc1ccc(O)cc1)C(=O)N[C@H](CCCCNC(=O)c1cccnc1)C(=O)N[C@@H](CC(C)C)C(=O)NCCCN1CCOCC1 [Example 31, NAcD2Nal-D4ClPhe-D3Pal-Ser-NMeTyr-DLys(Nic)-Leu-NH--CH2 CH2 CH2 -(1-morpholine)] (Ac-[d2Nal][dPhe(4-Cl)][d3Pal]S[NMeY][dK](Nicotinoyl)L-X13)",9.30
4,"CC(=O)N[C@H](Cc1ccc2ccccc2c1)C(=O)N[C@H](Cc1ccc(Cl)cc1)C(=O)N[C@H](Cc1cccnc1)C(=O)N[C@@H](CO)C(=O)N(C)[C@@H](Cc1ccc(O)cc1)C(=O)N[C@H](CCCCNC(=O)c1cccnc1)C(=O)N[C@@H](CC(C)C)C(=O)NCCCCNC(=N)N [Example 22, NAcD2Nal-D4ClPhe-D3Pal-Ser-NMeTyr-DLys(Nic)-Leu-NH--(CH2)4 NH(C=NH)NH2] (Ac-[d2Nal][dPhe(4-Cl)][d3Pal]S[NMeY][dK](Nicotinoyl)L-Agmatine)",10.26
5,"CC(=O)N[C@H](Cc1ccc2ccccc2c1)C(=O)N[C@H](Cc1ccc(Cl)cc1)C(=O)N[C@H](Cc1cccnc1)C(=O)N[C@@H](CO)C(=O)N(C)[C@@H](Cc1ccc(O)cc1)C(=O)N[C@H](CCCCNC(=O)c1cccnc1)C(=O)N[C@@H](CC(C)C)C(=O)NCCC1CCCN1C (stereo partly drawn) [Example 30, NAcD2Nal-D4ClPhe-D3Pal-Ser-NMeTyr-DLys(Nic)-Leu-NH--CH2 --CH2 -[2-(1-methyl)pyrrolidine]] (Ac-[d2Nal][dPhe(4-Cl)][d3Pal]S[NMeY][dK](Nicotinoyl)L-X7)",9.80
6,"CC(=O)N[C@H](Cc1ccc2ccccc2c1)C(=O)N[C@H](Cc1ccc(Cl)cc1)C(=O)N[C@H](Cc1cccnc1)C(=O)N[C@@H](CO)C(=O)N(C)[C@@H](Cc1ccc(O)cc1)C(=O)N[C@H](CCCCNC(=O)c1cccnc1)C(=O)N[C@@H](CC(C)C)C(=O)NC1CN2CCC1CC2 (stereo partly drawn) [Example 25, NAcD2Nal-D4ClPhe-D3Pal-Ser-NMeTyr-Dlys(Nic)-Leu-NH--(3-guinuclidine)] (Ac-[d2Nal][dPhe(4-Cl)][d3Pal]S[NMeY][dK](Nicotinoyl)L-X5)",10.02
7,"CC(=O)N[C@H](Cc1ccc2ccccc2c1)C(=O)N[C@H](Cc1ccc(Cl)cc1)C(=O)N[C@H](Cc1cccnc1)C(=O)N[C@@H](CO)C(=O)N(C)[C@@H](Cc1ccc(O)cc1)C(=O)N[C@H](CCCCNC(=O)c1cccnc1)C(=O)N[C@@H](CC(C)C)C(=O)NCCCCCNC(C)C [Example 12, NAcD2Nal-D4ClPhe-D3Pal-Ser-NMeTyr-DLys(Nic)-1-Leu-NH--(CH2)5 NH-isopropyl] (Ac-[d2Nal][dPhe(4-Cl)][d3Pal]S[NMeY][dK](Nicotinoyl)L-X11)",10.45
8,"CC(=O)N[C@H](Cc1ccc2ccccc2c1)C(=O)N[C@H](Cc1ccc(Cl)cc1)C(=O)N[C@H](Cc1cccnc1)C(=O)N[C@@H](CO)C(=O)N(C)[C@@H](Cc1ccc(O)cc1)C(=O)N[C@H](CCCCNC(=O)c1cccnc1)C(=O)N[C@@H](CC(C)C)C(=O)NCCc1ccccc1 [Example 8, NAcD2Nal-D4ClPhe-D3Pal-Ser-NMeTyr-DLys(Nic)-Leu-NH--(CH2)2 -phenyl] (Ac-[d2Nal][dPhe(4-Cl)][d3Pal]S[NMeY][dK](Nicotinoyl)L-NHPhenethyl)",8.48
9,"CC(=O)N[C@H](Cc1ccc2ccccc2c1)C(=O)N[C@H](Cc1ccc(Cl)cc1)C(=O)N[C@H](Cc1cccnc1)C(=O)N[C@@H](CO)C(=O)N(C)[C@@H](Cc1ccc(O)cc1)C(=O)N[C@H](CCCCNC(=O)c1cccnc1)C(=O)N[C@@H](CC(C)C)C(=O)NCCN1CCOCC1 [Example 27, NAcD2Nal-D4ClPhe-D3Pal-Ser-NMeTyr-DLys(Nic)-Leu-NH--CH2 --CH2 -(1-norpholine)] (Ac-[d2Nal][dPhe(4-Cl)][d3Pal]S[NMeY][dK](Nicotinoyl)L-{NH(2-morpholinoethyl)})",8.30
10,"CC(=O)N[C@H](Cc1ccc2ccccc2c1)C(=O)N[C@H](Cc1ccc(Cl)cc1)C(=O)N[C@H](Cc1cccnc1)C(=O)N[C@@H](CO)C(=O)N(C)[C@@H](Cc1ccc(O)cc1)C(=O)N[C@H](CCCCNC(=O)c1cccnc1)C(=O)N[C@@H](CC(C)C)C(=O)NCCc1ccccn1 [Example 28, NAcD2Nal-D4ClPhe-D3Pal-Ser-NMeTyr-DLys(Nic)-Leu-NH--CH2 --CH2 -(2-pyridine)] (Ac-[d2Nal][dPhe(4-Cl)][d3Pal]S[NMeY][dK](Nicotinoyl)L-{NH(2-(2-pyridyl)ethyl)})",8.10
11,"CC(=O)N[C@H](Cc1ccc2ccccc2c1)C(=O)N[C@H](Cc1ccc(Cl)cc1)C(=O)N[C@H](Cc1cccnc1)C(=O)N[C@@H](CO)C(=O)N(C)[C@@H](Cc1ccc(O)cc1)C(=O)N[C@H](CCCCNC(=O)c1cccnc1)C(=O)N[C@@H](CC(C)C)C(=O)NCCNC(C)C [Example 9, NAcD2Nal-D4ClPhe-D3Pal-Ser-NMeTyr-DLys(Nic)-Leu-NH--(CH2)2 NH-isopropyl] (Ac-[d2Nal][dPhe(4-Cl)][d3Pal]S[NMeY][dK](Nicotinoyl)L-X4)",10.21
12,"CCN(CC)C(=O)[C@H](CC(C)C)NC(=O)[C@@H](CCCCNC(=O)c1cccnc1)NC(=O)[C@H](Cc1ccc(O)cc1)N(C)C(=O)[C@H](CO)NC(=O)[C@@H](Cc1cccnc1)NC(=O)[C@@H](Cc1ccc(Cl)cc1)NC(=O)[C@@H](Cc1ccc2ccccc2c1)NC(C)=O [Example 4, NAcD2Nal-D4ClPhe-D3Pal-Ser-NMeTyr-DLys(Nic)-Leu-N(CH2 CH3)2] (Ac-[d2Nal][dPhe(4-Cl)][d3Pal]S[NMeY][dK](Nicotinoyl)L-NEt2)",7.96
13,"CC(=O)N[C@H](Cc1ccc2ccccc2c1)C(=O)N[C@H](Cc1ccc(Cl)cc1)C(=O)N[C@H](Cc1cccnc1)C(=O)N[C@@H](CO)C(=O)N(C)[C@@H](Cc1ccc(O)cc1)C(=O)N[C@H](CCCCNC(=O)c1cccnc1)C(=O)N[C@@H](CC(C)C)C(=O)NCCCCCCCCNC(=N)N [Example 20, NAcD2Nal-D4ClPhe-D3Pal-Ser-NMeTyr-DLys(Nic)-Leu-NH--(CH2)8 NH(C=NH)NH2] (Ac-[d2Nal][dPhe(4-Cl)][d3Pal]S[NMeY][dK](Nicotinoyl)L-X6)",8.39
14,"CC(=O)N[C@H](Cc1ccc2ccccc2c1)C(=O)N[C@H](Cc1ccc(Cl)cc1)C(=O)N[C@H](Cc1cccnc1)C(=O)N[C@@H](CO)C(=O)N(C)[C@@H](Cc1ccc(O)cc1)C(=O)N[C@H](CCCCNC(=O)c1cccnc1)C(=O)N[C@@H](CC(C)C)C(=O)NCc1cccnc1 [Example 24, NAcD2Nal-D4ClPhe-D3Pal-Ser-NMeTyr-DLys(Nic)-Leu-NH--CH2 -(3-pyridine)] (Ac-[d2Nal][dPhe(4-Cl)][d3Pal]S[NMeY][dK](Nicotinoyl)L-{NH(3-picolyl)})",8.30
15,"CC(=O)N[C@H](Cc1ccc2ccccc2c1)C(=O)N[C@H](Cc1ccc(Cl)cc1)C(=O)N[C@H](Cc1cccnc1)C(=O)N[C@@H](CO)C(=O)N(C)[C@@H](Cc1ccc(O)cc1)C(=O)N[C@H](CCCCNC(=O)c1cccnc1)C(=O)N[C@@H](CC(C)C)C(=O)NCCCCCCCN [Example 10, NAcD2Nal-D4ClPhe-D3Pal-Ser-NMeTyr-DLys(Nic)-Leu-NH--(CH2)7 NH2] (Ac-[d2Nal][dPhe(4-Cl)][d3Pal]S[NMeY][dK](Nicotinoyl)L-{NH(CH2)7NH2})",8.76
16,"CC(=O)N[C@H](Cc1ccc2ccccc2c1)C(=O)N[C@H](Cc1ccc(Cl)cc1)C(=O)N[C@H](Cc1cccnc1)C(=O)N[C@@H](CO)C(=O)N(C)[C@@H](Cc1ccc(O)cc1)C(=O)N[C@H](CCCCNC(=O)c1cccnc1)C(=O)N[C@@H](CC(C)C)C(=O)NCCO [Example 7, NAcD2Nal-D4ClPhe-D3Pal-Ser-NMeTyr-DLys(Nic)-Leu-NH--(CH2)2 OH] (Ac-[d2Nal][dPhe(4-Cl)][d3Pal]S[NMeY][dK](Nicotinoyl)L-NHCH2CH2OH)",8.95
